Data taken from patent publication US20010042341A1, “Vase-added compositions for controlling plant and flower moisture transpiration rates” (priority 2000, published 2001).

Tested on: microorganisms
Details: display water (vase water) of cut flowers; prior art antimicrobial

O=C(O)CC(O)(CC(=O)O)C(=O)O.Oc1cccc2cccnc12 [8-hydroxy quinoline citrate]
growth of microorganisms: enhance the growth of microorganisms after an initial diminution of their level
